Experimental data taken from ChEMBL document CHEMBL3507680, “University of Dundee, Gates Library screen for HepG2 cell viability”.

Assay: Human HepG2 cell viability assay in 384 well format
Type: toxicity, cell-based
Set-up: dose 125 nL, time 70.5 hour; concentration not given beside the values
Conditions: HepG2 cells, read-out: Inhibition

| SMILES | cytotoxicity at 70.5 h [%] |
| --- | --- |
| Cc1nc(CN2CCCC(c3cc(C(F)(F)F)[nH]n3)C2)cs1 (centres undefined) | -3.08 |
| Cc1csc(N2CCCN(C(=O)c3c(C)noc3C)CC2)n1 | -8.3 |
| Cc1csc(N2CCN(C(=O)c3c(C)oc(C)c3C)CC2)n1 | -1.28 |
| Cc1cc(C)n(CC2CCCN2C(=O)c2ccc3nncn3c2)n1 (centres undefined) | -4.03 |
| CC1CN(C)CCN1Cc1cccc(C(=O)N(C)C)c1 (centres undefined) | 33.2 |
| Cn1cc(CC(=O)N2CCCC(n3cncn3)C2)cn1 (centres undefined) | -3.54 |
| CCC1CN(C(=O)NCc2cccnc2-n2cccn2)CCO1 (centres undefined) | -5.61 |
| O=C(c1cnn(-c2ccccc2)n1)N1CCCC(n2cccn2)C1 (centres undefined) | -10.8 |
| CCOCCN1CCN(Cc2cccc(C(=O)N(C)C)c2)CC1CC (centres undefined) | -6.73 |
| O=C(NCc1ccccc1-n1cccn1)N1CCC(N2CCCC2)C1 (centres undefined) | -6.47 |
| c1ccc(OCCN2CCc3c(ncn3C3CC3)C2)cc1 | -4.85 |
| COCCN1CCN(Cc2cccc(C(=O)N(C)C)c2)CC1 | -4.26 |
| Cc1cc(C)n(CC2CCCCN2C(=O)c2ccsc2)n1 (centres undefined) | -2.03 |
| Cc1nn(C)c(C)c1CCC(=O)N1CCCC(n2cncn2)C1 (centres undefined) | -6.31 |
| CCN(Cc1ccc2c(c1)OCO2)C(=O)Cn1cccnc1=O | -0.305 |
| CCN(Cc1ccc2c(c1)OCCO2)C(=O)Cn1cccnc1=O | -5.36 |
| CC(=O)NC1CCCN(C(=O)NCc2ccc(-n3cccn3)cc2)C1 (centres undefined) | -2.4 |
| CCc1noc(C(C)N2CCN(C(=O)CN3CCOCC3)CC2)n1 (centres undefined) | 0.684 |
| CN1CCCN(C(=O)NCc2cccnc2-n2cccn2)CC1 | -0.342 |
| CCC1CCCN(C(=O)NCc2cccnc2-n2cccn2)C1 (centres undefined) | -4.16 |
| CNC(=O)COc1ccc(CNCc2c(C)nn(C)c2N(C)C)cc1 | -0.911 |

| SMILES | cytotoxicity at 70.5 h [%] |
| --- | --- |
| Cc1nn(-c2ccccc2)nc1C(=O)N1CCCC(n2cccn2)C1 (centres undefined) | -1.86 |
| O=C(CN1CCCC(Cn2cncn2)C1)NCCCc1ccccc1 (centres undefined) | -2.31 |
| O=C(CN1CCCC(Cn2cncn2)C1)NCCc1cccs1 (centres undefined) | 0.827 |
| Cc1ccc(CNC(=O)CN2CCOC(Cn3cncn3)C2)s1 (centres undefined) | -2.32 |
| CCNc1cc2c(nn1)CCN(C(=O)c1cc3cc(C)ccc3o1)C2 | 5.36 |
| CCc1nc(C2CCCN2C(=O)c2ccc3c(c2)[nH]c(=O)n3C)no1 (centres undefined) | 2.37 |
| Cc1nc(C2CCCN2C(=O)c2ccc3c(c2)nc(C)n3C)no1 (centres undefined) | 3.45 |
| O=S(=O)(CCN1CCc2c(ncn2C2CC2)C1)c1ccccc1 | 16.5 |
| Cc1cccc(N2CCN(C(=O)NC(C)c3nncn3C)CC2)c1 (centres undefined) | 20.1 |
| Cc1cc(NC(=O)NCC2COc3ccccc3C2)no1 (centres undefined) | 52 |
| Cc1noc(C)c1C(=O)NCc1ccc(N2CCC(C)CC2)nc1 | 1.58 |
| COc1ncccc1CNC(=O)NC(C)Cn1cccn1 (centres undefined) | -14.1 |
| Cc1noc(C)c1CN(C)C(=O)c1ccc(C(F)(F)F)nc1 | -0.00923 |
| CCN1CCN(c2ccc(CNC(=O)c3cc(C)on3)cn2)CC1 | -4.09 |
| CC(Cn1cccn1)NC(=O)NCc1ccnc(OC2CCCC2)c1 (centres undefined) | -8.79 |
| CC(Cn1cccn1)NC(=O)NCc1ccc(OC2CCCC2)nc1 (centres undefined) | 19.5 |
| Cc1ccc(OCCN(C)C(=O)NC(C)c2nncn2C)cc1 (centres undefined) | -5.04 |
| CC(Cn1ccnc1)NC(=O)NCc1cccnc1OC1CCCC1 (centres undefined) | -8.81 |
| COc1cc(C)nc(N2CCN(C(=O)CNC(C)(C)C)CC2)n1 | -15.6 |
| O=C1C(NCc2nnc3n2CCCC3)CCN1c1ccccc1 (centres undefined) | -5.59 |
| CC(C)(C)c1n[nH]c(C2CN(C(=O)c3ccsc3)CCO2)n1 (centres undefined) | -16.5 |

| SMILES | cytotoxicity at 70.5 h [%] |
| --- | --- |
| CC(C)(C)c1n[nH]c(C2CN(C(=O)CCc3cscn3)CCO2)n1 (centres undefined) | -21.1 |
| CCn1nc2c(cc1=O)CN(Cc1nc(CCOC)no1)CC2 | -16 |
| CCOc1cc(CNC(=O)N2CCC(Cc3cnn(C)c3)C2)ccn1 (centres undefined) | -10.6 |
| Cc1cc(C)n(CC2CCCN2CCc2ccncc2)n1 (centres undefined) | 17.9 |
| Cc1cnn(CC2CCCN2C(=O)c2ccc(OC(C)C)nc2)c1 (centres undefined) | -15 |
| O=C1C(NCc2nnc3n2CCCC3)CCN1CC(F)(F)F (centres undefined) | 20.6 |
| Cc1nccn1C1CCCN(C(=O)COCC(F)(F)F)C1 (centres undefined) | -7.9 |
| COc1cccc(CCNCc2c(C)nn(C)c2N(C)C)c1 | -4.91 |
| COc1cc(CNCc2c(C(C)C)nn(C)c2N(C)C)ccn1 | -5.93 |
| Cc1cc(C)n(CC2CN(Cc3cscn3)CCO2)n1 (centres undefined) | -4.76 |
| CC(C)c1nn(C)c(N(C)C)c1CNCc1ccccc1CN(C)C | -0.417 |
| COCc1cccc(CNC(=O)CN2CCCC2c2noc(C)n2)c1 (centres undefined) | -13.1 |
| Cc1noc2ncc(C(=O)N(CC3CCOC3)C3CC3)cc12 (centres undefined) | -6.78 |
| Cc1cc(C)c(CNC(=O)NCC2CCCN2C)c(=O)[nH]1 (centres undefined) | 19 |
| Cc1cc(C)c(CNC(=O)N(C)CC2CCCCO2)c(=O)[nH]1 (centres undefined) | -3.49 |
| Cc1cc(C)c(CNC(=O)N2CCN(c3ncccn3)CC2)c(=O)[nH]1 | 0.0542 |
| Cc1cc(C)c(CNC(=O)NCC2CCCO2)c(=O)[nH]1 (centres undefined) | 26.7 |
| Cc1cnn(CC2CN(CC(=O)Nc3nnc(C)s3)CCO2)c1 (centres undefined) | -9.05 |
| Cc1ccc(NC2CCN(C(=O)c3cc[nH]n3)CC2)nn1 | -11 |
| CC(C)c1ccc(C(O)Cn2c(=O)c(C#N)cn(C3CC3)c2=O)cc1 (centres undefined) | -3.45 |
| c1ncn(CC2CCCCN2Cc2noc(C3CC3)n2)n1 (centres undefined) | 11.3 |

| SMILES | cytotoxicity at 70.5 h [%] |
| --- | --- |
| Cc1ccc(C(=O)Nc2cn[nH]c2)cc1C | -1.12 |
| Cc1nc(C)c(CC(=O)Nc2nnc(C)s2)c(=O)[nH]1 | 0.383 |
| CCn1cc(NC(=O)NCC(c2cccc(F)c2)N(C)C)cn1 (centres undefined) | -4.54 |
| Cc1ncsc1C(=O)N(C)Cc1ccncc1 | 28.4 |
| COc1ccc(C)cc1CNCc1ccc(-n2nc(C)cc2C)nc1 | 5.93 |
| Cc1ccc(CNCc2ccc(-n3nc(C)cc3C)nc2)cc1 | -6.83 |
| Cc1ccc(C)c(OC2CCN(C(=O)c3ccc(O)nc3)CC2)c1 | 2.43 |
| Cc1ccc(C(=O)N2CCC(Oc3ccc(F)cc3F)CC2)c(=O)[nH]1 | 31.6 |
| CC(C)(CNC(=O)CCOc1cccc(F)c1)C(N)=O | 2.27 |
| CCCN(CC1COc2ccccc2O1)C(=O)CCn1cncn1 (centres undefined) | -1.87 |
| COc1cccc(COCC(=O)N2CCC(CC(N)=O)CC2)c1 | 4.02 |
| Cc1cn2c(n1)CCC(NC(=O)c1ccc(CS(C)(=O)=O)o1)C2 (centres undefined) | -2.86 |
| c1ccc(-c2nccc(CNCC3CCCN3c3cccnn3)n2)cc1 (centres undefined) | 39.7 |
| Cc1nc(CNCC2CCCN2c2cccnn2)cs1 (centres undefined) | 2.56 |
| Cn1cc(Cl)cc1C(=O)N1CCCN(Cc2cccs2)CC1 | 4.57 |
| N#CC1(C(=O)NCCCNc2ccc(C(F)(F)F)cn2)CCCC1 | 5.77 |
| Cc1cnn(CCCNC(=O)N2CCCCC(N3CCCC3)C2)c1 (centres undefined) | -6.01 |
| CCN(CC)C(=O)CN(C)C1CCc2ccccc21 (centres undefined) | -3.62 |
| CCOCC(O)CN1CCN(C(=O)Cc2ccc3c(c2)CCO3)CC1 (centres undefined) | 0.715 |
| O=C(Nc1cnn(CCN2CCOCC2)c1)c1ccccc1O | 0.705 |
| CCn1c(CN2CCCN(C(=O)OC)CC2)nc2c(F)cccc21 | 18.8 |
